Data: patent US5808144A, “Benzene derivatives” (Teijin Limited, priority 1995, dated 1998)

How the values were obtained:
human IgE antibody = assay: Human IgE antibody production-inhibiting activity in vitro (lymphocytes + IL-4 + anti-CD40 Ab + IL-10, sandwich ELISA); assay type: cell-based; conditions: Lymphocyte; for inhibition at 0.1 µM: 100 nM (0.1 μM), vs. no compound; for IC50: IgE antibody production
Procedure: (§1) Measurement of human IgE antibody production-inhibiting activity in vitro
(§2) In accordance with the following method established with reference to The Journal of Immunology (J. Immunol.), Vol. 146, 1836 to 1842 (1991) and the Journal of Immunology (J. Immunol.), Vol. 147, 8 to 13 (1991), the concentrations of IgE and […], when the compounds of the present invention shown in Table 12 were employed, were measured.
(§3) Peripheral venous blood gathered from a healthy person was subjected to a density-gradient centrifugation to isolate lymphocytes therefrom. The isolated lymphocytes were washed and suspended in a culture medium liquid (RPMI-1640 (made by Gibco Co.)+10% heat-inactivated FCS (made of Whittaker Co.)+100 μg/ml streptomycin+100 U/ml penicillin G+2 mM L-glutamine). The lymphocytes in the suspension were cultured for one week in the presence or non-presence of the above-mentioned compounds and in the presence of an interleukin 4 (IL-4, made by GENZYME CO.) (0.1 mg/ml), an anti-CD 40 antibodies (anti CD 40 Ab, made by BIOSOURCE CO., clone B-B20) (0.2 mg/ml), and an interleukin 10 (IL-10, made by GENZYME CO.) (0.2 mg/ml). To this culture system, the same culture medium liquid as mentioned above was supplemented, and then the culture was further carried out for one week. Thereafter, the concentrations of IgE antibodies and IgG antibodies in the supernatant of the culture mixture were measured by a sandwich ELISA method. In the measurement by the ELISA method, the concentration of the IgE antibodies was determined by using a primary antibody consisting of a rabbit anti-human IgE (ε) antibody (made by IGN Co.) and a secondary antibody consisting of biotin-anti-human IgE monoclonal antibody (G7-26, made by Phar Mingen Co.), and the concentration of IgG antibodies was determined by using a primary antibody consisting of anti-human IgG monoclonal antibody (G18-145, made by Phar Mingen Co.) and a secondary antibody consisting of biotin-donkey anti-human IgG antibody (H+L), made by Jackson Co.). Also, in the measurement of IgE and IgG antibody concentrations, as an enzyme, an Avidin-Biotin-HRP (Avidin-Biotin-Horse Radish Peroxidase; ABC kit, made by Vector Lab.) was used and as a substrate, TMB (3,3', 5,5'-tetramethylbenzidine) Microwell Peroxidase Substrate System (made by Kirkegaad & Perry Laboratories Inc.) was used.
(§4) On the basis of each antibody concentration when the compound of the present invention was not present, each antibody production-inhibition (%) in a concentration of the compound to be tested of 0.1 μM was calculated. Further, with respect to some of the compounds tested, the antibody production-inhibitions (%) of the tested compounds were measured in various concentrations thereof, and IC 50 values thereof were calculated. (Refer to Uejima et al., American Academy of Allergy & Immunology, Proceeding of 1995 Annual Meeting, Program No. 818).

human IgG antibody = assay: Human IgG antibody production-inhibiting activity in vitro (lymphocytes + IL-4 + anti-CD40 Ab + IL-10, sandwich ELISA); assay type: cell-based; conditions: Lymphocyte; for inhibition at 0.1 µM: 100 nM (0.1 μM), vs. no compound; for IC50: IgG antibody production
Procedure: as §1, §2, §3, §4

anti-TNP IgE = assay: IgE antibody production-inhibiting performance on TNP-sensitive mice: serum anti-TNP IgE (ELISA); assay type: in vivo, mouse; conditions: serum day 11, vehicle 433 ± 118
Procedure: (§5) Measurement of IgE antibody production-inhibiting performance on TNP-sensitive mice
(§6) TNP-KLH (2 μg/head) and Alum (1 mg/head) were dosed into the abdominal cavities of 8-week-old male mice to sensitize the mice.
(§7) Compound No. 14 was suspended in a concentration of 1.0 mg/ml, 3.0 mg/ml or […] in an aqueous 5% gum arabi solution, and each suspension was perorally dosed to three groups of mice for medication, to which each medicine was dosed at a dosage of 10 ml/kg, (namely, 10 mg/kg, 30 mg/kg or 100 mg/kg), once a day continuously for 10 days from the sensitized day. For a vehicle mouse group, the above-mentioned aqueous gum arali solution was dosed in the same amount as mentioned above in the same manner as mentioned above.
(§8) On the day after the final dosing day (the eleventh day), blood was extracted from the heart of the mouse, and a TNP specific antibody value of a blood serum obtained from the extracted blood was measured in accordance with ELISA method.

anti-TNP IgG = assay: TNP-sensitive mice: serum anti-TNP IgG (ELISA); assay type: in vivo, mouse; conditions: serum day 11, vehicle 4390 ± 2630
Procedure: as §5, §6, §7, §8

anti-TNP IgM = assay: TNP-sensitive mice: serum anti-TNP IgM (ELISA); assay type: in vivo, mouse; conditions: serum day 11, vehicle 110 ± 9
Procedure: as §5, §6, §7, §8

[1] = 10 mg/kg p.o. once a day for 10 days
[2] = 100 mg/kg p.o. once a day for 10 days, ** p < 0.01 vs. vehicle
[3] = 30 mg/kg p.o. once a day for 10 days

Compound | IC50 (human IgE antibody) | IC50 (human IgG antibody) | inhibition at 0.1 µM (human IgE antibody) | inhibition at 0.1 µM (human IgG antibody) | also measured
O=C(Cc1ccc(Oc2ccc(OC3CCCC3)cc2)cc1)Nc1ccccc1C(=O)O [compound 12, 2-(4-(4-cyclopentyloxyphenoxy)phenylacetamido)benzoic acid] | 44 nM | > 100 nM | 100% | 95.8% | –
O=C(Cc1ccc(Oc2ccc(OC3CCCCCCCCCCC3)cc2)cc1)Nc1ccccc1C(=O)O [compound 16, 2-(4-(4-cyclododecanyloxyphenoxy)phenylacetamido)benzoic acid] | 22 nM | 46 nM | 100% | 95.8% | –
CC(C)Oc1ccc(Oc2ccc(CC(=O)Nc3ccccc3C(=O)O)cc2)cc1 [compound 18, 2-(4-(4-isopropyloxyphenoxy)phenylacetamido)benzoic acid] | – | – | 19.5% | -1.7% | –
O=C(Nc1ccccc1C(=O)O)c1ccc(Oc2ccc(OC3CCCCCCC3)cc2)cc1 [compound 22, 2-(4-(4-cyclooctyloxyphenoxy)benzamido)benzoic acid] | – | – | 51% | -33.2% | –
O=C(Nc1ccccc1C(=O)O)c1ccc(Oc2ccc(O)cc2)cc1 [compound 30, 2-(4-(4-hydroxyphenoxy)benzamido)benzoic acid] | – | – | 25.7% | -31.7% | –

The next lines start with results.

IC50 (human IgE antibody) | IC50 (human IgG antibody) | Compound | inhibition at 0.1 µM (human IgE antibody) | inhibition at 0.1 µM (human IgG antibody) | also measured
28 nM | 200 nM | O=C(Cc1ccc(Oc2ccc(OCc3ccccc3)cc2)cc1)Nc1ccccc1C(=O)O [Compound No. 4, 2-(4-(4-benzyloxyphenoxy)phenylacetamido)benzoic acid] | 100% | 100% | –
17 nM | 50 nM | O=C(Cc1ccc(Oc2ccc(OC3CCCCC3)cc2)cc1)Nc1ccccc1C(=O)O [Compound No. 8, 2-(4-(4-cyclohexyloxyphenoxy)phenylacetamido)benzoic acid] | 95.5% | 40.6% | –
6 nM | 12 nM | O=C(Cc1ccc(Oc2ccc(OC3CCCCCCC3)cc2)cc1)Nc1ccccc1C(=O)O [Compound No. 14, 2-(4-(4-cyclooctyloxyphenoxy)phenylacetamido)benzoic acid] | 100% | 93.8% | anti-TNP IgE (anti-TNP IgE; [1]): 127 ± 72 ng/mL; anti-TNP IgE (anti-TNP IgE; 30 mg/kg p.o. once a day for 10 days, ** p < 0.01 vs. vehicle): 52 ± 30 ng/mL; anti-TNP IgE (anti-TNP IgE; [2]): 0.2 ± 0.4 ng/mL; anti-TNP IgG (anti-TNP IgG; [1]): 2980 ± 2310 ng/mL; anti-TNP IgG (anti-TNP IgG; [3]): 2500 ± 1700 ng/mL; anti-TNP IgG (anti-TNP IgG; [2]): 16 ± 18 ng/mL; anti-TNP IgM (anti-TNP IgM; [1]): 79 ± 40 µg/mL; anti-TNP IgM (μg/ml) (anti-TNP IgM; [3]): 73 ± +26 μg/ml; anti-TNP IgM (anti-TNP IgM; [2]): 20 ± 5.0 µg/mL
35 nM | > 100 nM | CCC(CC)Oc1ccc(Oc2ccc(CC(=O)Nc3ccccc3C(=O)O)cc2)cc1 [compound 20, 2-(4-(4-(3-pentyloxy)phenoxy)phenylacetamido)benzoic acid] | 100% | 52.6% | –
